For test [1], the target named is T1, Non-receptor tyrosine-protein kinase TNK1 (Homo sapiens) (UniProt Q13470).
T1 sequence (whole entry): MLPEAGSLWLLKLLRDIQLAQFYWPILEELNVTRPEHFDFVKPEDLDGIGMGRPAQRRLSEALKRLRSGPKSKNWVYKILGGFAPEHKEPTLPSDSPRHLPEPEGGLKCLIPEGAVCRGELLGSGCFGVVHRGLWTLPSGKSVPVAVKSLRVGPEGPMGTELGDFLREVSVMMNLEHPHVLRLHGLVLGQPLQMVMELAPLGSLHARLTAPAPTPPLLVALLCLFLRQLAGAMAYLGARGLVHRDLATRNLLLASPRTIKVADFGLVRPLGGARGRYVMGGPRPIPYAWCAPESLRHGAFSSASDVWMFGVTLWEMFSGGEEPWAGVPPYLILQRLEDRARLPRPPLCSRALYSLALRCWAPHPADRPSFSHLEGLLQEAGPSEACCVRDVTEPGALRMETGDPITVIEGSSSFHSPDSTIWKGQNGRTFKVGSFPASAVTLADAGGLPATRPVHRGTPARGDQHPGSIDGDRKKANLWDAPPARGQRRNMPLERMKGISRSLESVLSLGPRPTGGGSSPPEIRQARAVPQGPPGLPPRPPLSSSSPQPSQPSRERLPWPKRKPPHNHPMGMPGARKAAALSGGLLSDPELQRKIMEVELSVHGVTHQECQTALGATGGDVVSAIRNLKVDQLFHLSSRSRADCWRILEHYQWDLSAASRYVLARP
The experiment in a line: Selectivity interaction (Kinase panel (Z-LYTE Assay)) EUB0001632a TNK1. Conditions: at 10 µM.

The target of test [2] is Platelet-derived growth factor receptor alpha (Homo sapiens, UniProt P16234). Conditions: at 10 µM.
Test [3] deals with SRSF protein kinase 3 (Homo sapiens) (UniProt Q9UPE1). The experiment in a line: Selectivity interaction (KinomeScan (DiscoverX)) EUB0000655a SRPK3. The settings on record: at 10 µM.
In test [4] the target is Phosphatidylinositol 4,5-bisphosphate 3-kinase catalytic subunit beta isoform (Homo sapiens) (UniProt P42338). The experiment in a line: Selectivity interaction (ActivX KiNativ screen (ex vivo kinase selectivity in human PBMCs)) EUB0001619a PIK3CB. The settings on record: PBMC, at 1 µM. The test is classed as cell-based.
Test [5] has as its target Epidermal growth factor receptor (Homo sapiens, UniProt P00533). As to the kind of experiment: Selectivity interaction (Kinase panel (Invitrogen)) EUB0000639a EGFR. The settings on record: at 200 nM.
The target of test [6] is Cyclin-dependent kinase 16 (Homo sapiens) (UniProt Q00536). The experiment in a line: Selectivity interaction (ActivX KiNativ screen (kinase selectivity in THP-1 cell lysates)) EUB0000639a CDK16. The format is subcellular. Conditions: lysate.
Test [7] addresses LIM domain kinase 1 (Homo sapiens) (UniProt P53667). As to the kind of experiment: Selectivity interaction (KinomeScan (DiscoverX)) EUB0001049a LIMK1. The settings on record: at 1 µM.
The target of test [8] is T2, Serine/threonine-protein kinase NLK (Homo sapiens) (UniProt Q9UBE8).
T2 sequence (whole entry): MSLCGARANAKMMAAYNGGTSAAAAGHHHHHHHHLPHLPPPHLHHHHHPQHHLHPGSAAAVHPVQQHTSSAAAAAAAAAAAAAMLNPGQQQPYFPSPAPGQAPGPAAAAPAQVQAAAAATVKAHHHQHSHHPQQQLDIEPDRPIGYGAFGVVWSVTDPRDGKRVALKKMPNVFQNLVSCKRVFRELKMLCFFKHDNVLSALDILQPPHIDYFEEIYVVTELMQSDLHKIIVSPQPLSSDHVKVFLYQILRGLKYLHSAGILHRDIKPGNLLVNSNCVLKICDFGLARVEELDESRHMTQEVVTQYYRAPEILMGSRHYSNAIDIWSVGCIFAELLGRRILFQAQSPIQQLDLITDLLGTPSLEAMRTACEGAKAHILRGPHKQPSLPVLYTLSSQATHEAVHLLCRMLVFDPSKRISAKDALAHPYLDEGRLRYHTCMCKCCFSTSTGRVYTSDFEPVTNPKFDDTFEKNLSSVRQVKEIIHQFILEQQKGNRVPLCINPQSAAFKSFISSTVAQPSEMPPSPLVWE
As to the kind of experiment: Selectivity interaction (KinomeScan (DiscoverX)) EUB0000045b NLK.

Test [9] concerns the target Serine/threonine-protein kinase PAK 6 (Homo sapiens) (UniProt Q9NQU5). As to the kind of experiment: Selectivity interaction (KinomeScan (DiscoverX)) EUB0000595a PAK6. The settings on record: at 10 µM.

Cyclin-dependent kinase 16 (Homo sapiens), sequence (Q00536 whole entry, the tested form may be a part): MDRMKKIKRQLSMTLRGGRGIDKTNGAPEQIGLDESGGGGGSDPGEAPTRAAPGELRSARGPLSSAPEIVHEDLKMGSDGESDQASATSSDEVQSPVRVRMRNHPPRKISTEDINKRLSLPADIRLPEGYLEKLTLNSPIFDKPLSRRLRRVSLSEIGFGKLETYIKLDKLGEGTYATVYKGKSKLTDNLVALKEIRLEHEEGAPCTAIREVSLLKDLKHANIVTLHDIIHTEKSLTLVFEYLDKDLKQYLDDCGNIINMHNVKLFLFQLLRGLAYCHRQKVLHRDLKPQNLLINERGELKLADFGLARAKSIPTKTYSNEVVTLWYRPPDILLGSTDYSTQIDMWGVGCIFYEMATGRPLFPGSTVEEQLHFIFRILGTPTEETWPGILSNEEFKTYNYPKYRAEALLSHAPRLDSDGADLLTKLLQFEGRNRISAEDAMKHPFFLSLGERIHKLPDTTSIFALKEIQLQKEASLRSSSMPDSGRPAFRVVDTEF
Epidermal growth factor receptor, sequence (P00533 whole entry): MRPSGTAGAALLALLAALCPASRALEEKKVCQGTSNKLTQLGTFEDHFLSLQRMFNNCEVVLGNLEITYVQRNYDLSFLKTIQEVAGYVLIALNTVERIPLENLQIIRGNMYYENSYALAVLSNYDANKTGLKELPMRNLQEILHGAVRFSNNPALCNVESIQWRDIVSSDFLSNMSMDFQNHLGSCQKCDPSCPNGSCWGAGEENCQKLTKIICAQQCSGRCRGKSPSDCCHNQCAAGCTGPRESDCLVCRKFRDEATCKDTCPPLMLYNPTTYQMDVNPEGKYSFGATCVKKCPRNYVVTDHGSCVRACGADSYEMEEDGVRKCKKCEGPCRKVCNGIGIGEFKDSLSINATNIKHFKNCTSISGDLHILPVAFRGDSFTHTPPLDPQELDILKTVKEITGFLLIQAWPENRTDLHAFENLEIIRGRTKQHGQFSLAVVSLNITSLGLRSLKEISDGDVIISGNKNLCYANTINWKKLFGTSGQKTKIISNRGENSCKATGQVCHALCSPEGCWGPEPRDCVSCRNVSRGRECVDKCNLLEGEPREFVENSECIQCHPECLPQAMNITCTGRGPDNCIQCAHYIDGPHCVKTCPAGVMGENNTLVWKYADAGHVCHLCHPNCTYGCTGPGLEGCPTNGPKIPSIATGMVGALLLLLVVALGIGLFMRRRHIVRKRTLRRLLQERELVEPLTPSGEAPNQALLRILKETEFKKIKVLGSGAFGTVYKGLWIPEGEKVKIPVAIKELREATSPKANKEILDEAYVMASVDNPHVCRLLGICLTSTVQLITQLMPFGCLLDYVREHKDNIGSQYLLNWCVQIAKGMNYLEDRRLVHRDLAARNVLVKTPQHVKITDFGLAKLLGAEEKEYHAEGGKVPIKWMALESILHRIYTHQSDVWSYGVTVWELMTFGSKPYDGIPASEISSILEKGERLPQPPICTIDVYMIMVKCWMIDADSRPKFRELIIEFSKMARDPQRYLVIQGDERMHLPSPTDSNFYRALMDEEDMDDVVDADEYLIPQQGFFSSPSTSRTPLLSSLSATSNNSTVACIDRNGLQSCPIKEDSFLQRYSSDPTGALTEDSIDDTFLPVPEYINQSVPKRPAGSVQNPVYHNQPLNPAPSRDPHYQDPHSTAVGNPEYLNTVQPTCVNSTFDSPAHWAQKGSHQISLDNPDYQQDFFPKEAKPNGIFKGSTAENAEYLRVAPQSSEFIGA
LIM domain kinase 1 (Homo sapiens), sequence (P53667 whole entry, looked up, the tested form may be a part): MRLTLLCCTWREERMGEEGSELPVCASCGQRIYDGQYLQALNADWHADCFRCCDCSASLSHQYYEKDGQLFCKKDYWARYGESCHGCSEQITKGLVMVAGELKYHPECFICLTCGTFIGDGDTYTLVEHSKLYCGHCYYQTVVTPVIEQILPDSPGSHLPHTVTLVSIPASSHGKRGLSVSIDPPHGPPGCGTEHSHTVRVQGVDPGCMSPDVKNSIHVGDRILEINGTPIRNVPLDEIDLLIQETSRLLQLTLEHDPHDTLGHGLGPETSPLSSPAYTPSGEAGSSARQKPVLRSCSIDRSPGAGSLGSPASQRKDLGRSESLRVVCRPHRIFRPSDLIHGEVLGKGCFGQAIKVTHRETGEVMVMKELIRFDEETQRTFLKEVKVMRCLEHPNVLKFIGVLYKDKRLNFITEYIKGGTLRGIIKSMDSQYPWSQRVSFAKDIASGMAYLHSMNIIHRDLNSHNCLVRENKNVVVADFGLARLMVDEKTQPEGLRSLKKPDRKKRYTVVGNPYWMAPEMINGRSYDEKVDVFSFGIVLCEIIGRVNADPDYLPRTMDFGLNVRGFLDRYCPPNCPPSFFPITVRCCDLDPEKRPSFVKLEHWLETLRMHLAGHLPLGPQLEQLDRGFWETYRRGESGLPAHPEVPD
Serine/threonine-protein kinase PAK 6 (Homo sapiens), sequence (Q9NQU5 whole entry, looked up): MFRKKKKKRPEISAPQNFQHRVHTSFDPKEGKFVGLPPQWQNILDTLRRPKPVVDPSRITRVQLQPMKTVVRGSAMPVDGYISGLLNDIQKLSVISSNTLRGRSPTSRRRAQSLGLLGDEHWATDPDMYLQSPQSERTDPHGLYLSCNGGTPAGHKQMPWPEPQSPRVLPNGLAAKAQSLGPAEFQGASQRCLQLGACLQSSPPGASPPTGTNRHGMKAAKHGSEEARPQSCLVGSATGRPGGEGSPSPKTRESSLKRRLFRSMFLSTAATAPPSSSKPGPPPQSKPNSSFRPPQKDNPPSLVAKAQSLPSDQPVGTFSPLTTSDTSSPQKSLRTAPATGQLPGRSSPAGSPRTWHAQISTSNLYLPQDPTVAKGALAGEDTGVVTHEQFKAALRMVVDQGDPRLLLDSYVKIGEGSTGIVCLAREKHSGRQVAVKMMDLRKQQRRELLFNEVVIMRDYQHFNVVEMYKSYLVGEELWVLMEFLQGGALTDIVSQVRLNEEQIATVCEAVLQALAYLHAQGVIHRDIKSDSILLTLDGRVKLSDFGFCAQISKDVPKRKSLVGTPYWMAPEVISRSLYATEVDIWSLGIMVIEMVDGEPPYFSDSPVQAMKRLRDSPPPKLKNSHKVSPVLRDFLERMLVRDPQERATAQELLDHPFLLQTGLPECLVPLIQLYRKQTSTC
SRSF protein kinase 3 (Homo sapiens), sequence (Q9UPE1 whole entry, canonical isoform): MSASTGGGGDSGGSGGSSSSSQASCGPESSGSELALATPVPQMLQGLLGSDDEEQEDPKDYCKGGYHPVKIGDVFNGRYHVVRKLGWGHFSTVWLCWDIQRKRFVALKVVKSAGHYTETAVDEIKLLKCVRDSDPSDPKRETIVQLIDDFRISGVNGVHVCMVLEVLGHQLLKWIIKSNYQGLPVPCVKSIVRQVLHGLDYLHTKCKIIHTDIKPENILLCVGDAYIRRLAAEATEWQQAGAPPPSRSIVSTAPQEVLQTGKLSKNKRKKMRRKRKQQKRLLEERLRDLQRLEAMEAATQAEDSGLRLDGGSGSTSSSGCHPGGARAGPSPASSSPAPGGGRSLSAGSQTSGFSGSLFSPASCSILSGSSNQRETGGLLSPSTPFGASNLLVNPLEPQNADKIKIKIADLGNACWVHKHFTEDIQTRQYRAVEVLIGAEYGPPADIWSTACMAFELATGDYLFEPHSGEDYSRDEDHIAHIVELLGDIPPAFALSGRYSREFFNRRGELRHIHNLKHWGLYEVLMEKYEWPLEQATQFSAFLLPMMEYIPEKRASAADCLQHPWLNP
Phosphatidylinositol 4,5-bisphosphate 3-kinase catalytic subunit beta isoform (Homo sapiens), sequence (P42338 whole entry, looked up, canonical isoform): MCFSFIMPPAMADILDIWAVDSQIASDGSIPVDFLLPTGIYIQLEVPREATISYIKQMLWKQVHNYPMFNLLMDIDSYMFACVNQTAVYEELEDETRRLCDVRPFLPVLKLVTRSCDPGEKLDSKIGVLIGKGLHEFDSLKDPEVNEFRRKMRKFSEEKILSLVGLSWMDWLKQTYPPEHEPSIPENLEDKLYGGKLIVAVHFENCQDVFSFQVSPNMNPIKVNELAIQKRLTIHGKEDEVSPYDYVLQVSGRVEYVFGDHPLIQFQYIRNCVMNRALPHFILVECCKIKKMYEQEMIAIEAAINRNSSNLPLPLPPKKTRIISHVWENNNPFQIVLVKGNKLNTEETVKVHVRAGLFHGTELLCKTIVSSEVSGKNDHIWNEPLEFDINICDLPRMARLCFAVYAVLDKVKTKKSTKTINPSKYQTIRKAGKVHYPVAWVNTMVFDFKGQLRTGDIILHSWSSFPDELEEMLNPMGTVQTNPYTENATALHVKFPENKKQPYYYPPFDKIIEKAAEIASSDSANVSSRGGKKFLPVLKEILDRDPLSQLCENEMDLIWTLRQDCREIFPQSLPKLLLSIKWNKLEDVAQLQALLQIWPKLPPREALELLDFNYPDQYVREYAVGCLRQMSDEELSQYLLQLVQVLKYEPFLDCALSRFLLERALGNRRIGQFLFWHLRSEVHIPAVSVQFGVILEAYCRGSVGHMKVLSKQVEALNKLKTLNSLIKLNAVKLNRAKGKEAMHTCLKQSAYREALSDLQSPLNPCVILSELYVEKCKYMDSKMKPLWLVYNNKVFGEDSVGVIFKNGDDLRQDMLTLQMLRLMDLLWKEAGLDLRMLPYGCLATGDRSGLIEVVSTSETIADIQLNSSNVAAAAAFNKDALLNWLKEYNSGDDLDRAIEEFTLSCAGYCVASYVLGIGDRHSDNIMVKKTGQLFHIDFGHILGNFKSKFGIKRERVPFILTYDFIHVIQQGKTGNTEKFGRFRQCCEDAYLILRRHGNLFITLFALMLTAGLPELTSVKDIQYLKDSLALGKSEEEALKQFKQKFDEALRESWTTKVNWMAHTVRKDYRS

As for `Cn1cc(-n2cnc3c(NCc4nc5cc(Cl)c(Cl)cc5[nH]4)nc(N4CCOCC4)nc32)cn1`, in test [1], the % of control came to 4.62%.
In test [2], `Cc1cc([C@@H](C)Nc2ccccc2C(=O)O)c2nc(N3CCOCC3)cc(=O)n2c1` [AZD-6482] came in with a % of control of 84%.
Turning to `CN(C)CCOc1ccc(-c2nc(-c3ccncc3)c(-c3ccc4c(c3)CC/C4=N\O)[nH]2)cc1`, the % of control in [3] is 100%.
For the compound `N#Cc1cccc(-c2c[nH]c3ncnc(N4CCOCC4)c23)c1`, the % of inhibition in test [4] is -1%.
For `CC[C@@H]1[C@H](F)C(=O)N[C@@H]1COc1nccc2cc(C(N)=O)c(OC)cc12` [ZIMLOVISERTIB], the % of inhibition was 1.25% in [5]; 16.3% in [6] (at 0.01 µM); 18.2% in test [6] (at 0.04 µM); 8.4% in [6] (at 0.2 µM); 15.9% in test [6] (at 1 µM); 47.1% in [6] (at 5 µM).
In test [7], `COc1cc(Nc2nc(C)cc(-c3cnn4nc(OC)ccc34)n2)cc(C(F)(F)F)c1` displayed a % of control of 75%.
As to `C=CC(=O)Nc1cc(-n2c(=O)ccc3cnc4ccc(-c5ccc(NS(C)(=O)=O)cc5)cc4c32)ccc1C`, the % of control in test [8] (at 1 µM) and in [8] (at 10 µM) was 100% throughout.
`COCC(=O)NC/C=C/c1ccc2ncnc(Nc3ccc(Oc4ccc(C)nc4)c(C)c3)c2c1` [CP-724714] came in with a % of control in test [9] of 89%.

The record behind these values is ChEMBL document CHEMBL5465560, “Selectivity Literature for EUbOPEN Chemogenomic Library” (2024).
